Experiment: Drying behaviour of crystallisates in dependence on residual moisture and product purity (tempering in sealed vials, visual points classification)
Assay type: physicochemical
Set-up: key: 5 points=sample unchanged; 4 points=sample compacted/started to dissolve; 3 points=sample visibly started to dissolve; 2 points=sample cloudy highly viscous solution; 1 point=sample dissolved to clear solution
Conditions: sealed vial, shaken
Experimental: This dependency is shown by the following example for determining the drying behaviour of crystallisates in dependence on residual moisture and product purity.
A DTPMP solid isolated by recrystallisation is characterised by residues of adhering mother liquor via the quality parameters listed in the following table. Determination of the residual moisture content by means of a halogen dryer HB 43 S/Mettler Toledo is carried out isothermally at the indicated temperature using the shutoff criterion 4 (AK4=mean weight loss is <1 mg per 90 seconds):
After a purification step, which consists in suspending the solid in water and then separating it off by means of a filtering centrifuge, the following quality criteria are obtained:
The adhering residual moisture is removed stepwise from these solid samples in a rotary evaporator at 40° C. and 5 mbar vacuum, so that a series of samples with decreasing residual moisture content is prepared from each of the two purity grades (unwashed and washed).
4 ml borosilicate vials are filled with this sample material and the filling level is adjusted to ⅔ of the height of the glass by gentle tapping. In order to minimise evaporative losses, the screw cap of each vial is additionally sealed with a polyethylene film. All the samples are shaken in parallel in a tempering block on a heating and cooling shaker ThermoTwister comfort/Quantifoil Instruments GmbH for a defined period at a defined temperature and then assessed visually. Classification is made according to the following points system: […]

[1] = Temperature 35 °C, test duration 24 h
[2] = Temperature 40 °C, test duration 24 h
[3] = Temperature 45 °C, test duration 24 h
[4] = Temperature 50 °C, test duration 24 h
[5] = Temperature 55 °C, test duration 24 h
[6] = Temperature 60 °C, test duration 24 h
[7] = Temperature 65 °C, test duration 5 h
[8] = Temperature 70 °C, test duration 5 h
[9] = Temperature 75 °C, test duration 5 h
[10] = Temperature 80 °C, test duration 5 h
[11] = Temperature 85 °C, test duration 5 h
[12] = Temperature 90 °C, test duration 5 h

| Compound | Visual classification at the end of the tempering step (points system) [1] | Visual classification at the end of the tempering step (points system) [2] | Visual classification at the end of the tempering step (points system) [3] | Visual classification at the end of the tempering step (points system) [4] | Visual classification at the end of the tempering step (points system) [5] | Visual classification at the end of the tempering step (points system) [6] | Visual classification at the end of the tempering step (points system) [7] | Visual classification at the end of the tempering step (points system) [8] | Visual classification at the end of the tempering step (points system) [9] | Visual classification at the end of the tempering step (points system) [10] | Visual classification at the end of the tempering step (points system) [11] | Visual classification at the end of the tempering step (points system) [12] |
| --- | --- | --- | --- | --- | --- | --- | --- | --- | --- | --- | --- | --- |
| O=P(O)(O)CN(CCN(CP(=O)(O)O)CP(=O)(O)O)CCN(CP(=O)(O)O)CP(=O)(O)O [unwashed quality 19 [% by mass] residual moisture] | 5 | 5 | 5 | 5 | 5 | 4 | 2 | 2 | 2 | 2 | 2 | 2 |
| O=P(O)(O)CN(CCN(CP(=O)(O)O)CP(=O)(O)O)CCN(CP(=O)(O)O)CP(=O)(O)O [washed quality 53 [% by mass] residual moisture] | 5 | – | – | – | – | – | – | – | – | 1 | 1 | 1 |
| O=P(O)(O)CN(CCN(CP(=O)(O)O)CP(=O)(O)O)CCN(CP(=O)(O)O)CP(=O)(O)O [unwashed quality 24 [% by mass] residual moisture] | 5 | 5 | 5 | 4 | 4 | 3 | 2 | 1 | 1 | 1 | 1 | 1 |
| O=P(O)(O)CN(CCN(CP(=O)(O)O)CP(=O)(O)O)CCN(CP(=O)(O)O)CP(=O)(O)O [unwashed quality 36 [% by mass] residual moisture] | 5 | 5 | 5 | 5 | 5 | 3 | 1 | 1 | 1 | 1 | 1 | 1 |
| O=P(O)(O)CN(CCN(CP(=O)(O)O)CP(=O)(O)O)CCN(CP(=O)(O)O)CP(=O)(O)O [unwashed quality 31 [% by mass] residual moisture] | 5 | 5 | 5 | 5 | 4 | 3 | 1 | 1 | 1 | 1 | 1 | 1 |
| O=P(O)(O)CN(CCN(CP(=O)(O)O)CP(=O)(O)O)CCN(CP(=O)(O)O)CP(=O)(O)O [unwashed quality 40 [% by mass] residual moisture] | 5 | 5 | 5 | 5 | 5 | 3 | 1 | 1 | 1 | 1 | 1 | 1 |
| O=P(O)(O)CN(CCN(CP(=O)(O)O)CP(=O)(O)O)CCN(CP(=O)(O)O)CP(=O)(O)O [washed quality 11 [% by mass] residual moisture] | 5 | 5 | 5 | 5 | 5 | 5 | 5 | 5 | 5 | 5 | 5 | 5 |
| O=P(O)(O)CN(CCN(CP(=O)(O)O)CP(=O)(O)O)CCN(CP(=O)(O)O)CP(=O)(O)O [unwashed quality 47 [% by mass] residual moisture] | 5 | 5 | 5 | 5 | 5 | 3 | 1 | 1 | 1 | 1 | 1 | 1 |
| O=P(O)(O)CN(CCN(CP(=O)(O)O)CP(=O)(O)O)CCN(CP(=O)(O)O)CP(=O)(O)O [unwashed quality 51 [% by mass] residual moisture] | 5 | 5 | 5 | 5 | 5 | 2 | 1 | 1 | 1 | 1 | 1 | 1 |

Reference: patent US10590153B2, “Process for producing crystalline DTPMP” (Zschimmer & Schwarz Mohsdorf GmbH & Co. KG, priority 2014, dated 2020)
